Common to all, as to experiment: NCI-60 cell line screen, 48 h
For experiment [1], the system named is HCC 2998.
Experiment [2] has as its system A549.
Experiment [3] relates to OVCAR-5.
The test system of experiment [4] is SF-539.
The test system of experiment [5] is SNB-19.
Experiment [6] concerns EKVX.
Experiment [7] has as its system HT-29.
For experiment [8], the system named is K562.
Experiment [9] concerns OVCAR-4.
Experiment [10] relates to SN12C.
The test system of experiment [11] is T47D.
Experiment [12] has as its system 786-0.
Experiment [13] concerns COLO 205.
Experiment [14] deals with IGROV-1.
Experiment [15] concerns UACC-62.
Experiment [16] deals with SNB-75.
The subject of experiment [17] is HL-60.
Experiment [18] deals with M14.
The test system of experiment [19] is MOLT-4.
The test system of experiment [20] is Malme-3M.

Each structure is given as a SMILES string.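 Assay format: 96-well plates, 48-hour exposure. Abbreviation: GI50, concentration required for 50% inhibition of growth.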 Active and inactive are the calls of the source. Cut-off read from the data, not from the text of the source: active = GI50 up to about 1.1 µM and inactive = higher.

As for `O=c1c2cccnc2[s+]([O-])n1Cc1ccccc1` (stereo unspecified), the GI50 in experiment [1], in [2], in [3], in experiment [4], in experiment [5] and in [6] was > 100 µM (inactive) throughout. The GI50 in experiment [7], in experiment [8], in experiment [9], in experiment [10], in [11] and in experiment [12] was > 100 µM (inactive) each time. For the same compound, the GI50 was > 100 µM (inactive) in [13]; > 100 µM (inactive) in [14]; > 100 µM (inactive) in experiment [15]; > 100 µM (inactive) in experiment [16]; > 10 µM (inactive) in [17]; > 100 µM (inactive) in [18]. Also, the GI50 in [19] and in [20] was > 100 µM (inactive) in each case.

For the compound `N/N=C(\C(=O)Nc1ccc([N+](=O)[O-])cc1)C(C1=Nc2cc([N+](=O)[O-])ccc2NC1)[N+](=O)[O-]` (stereo unspecified), the GI50 is > 100 µM (inactive) in experiment [1]; 55.8 µM (inactive) in experiment [2]; > 100 µM (inactive) in [3]; > 100 µM (inactive) in experiment [4]; > 100 µM (inactive) in experiment [5]; > 100 µM (inactive) in [6]. The GI50 in experiment [7] was 72.4 µM (inactive); in experiment [8], > 100 µM (inactive); in [9] it was > 100 µM (inactive); in experiment [10], > 100 µM (inactive); in experiment [11], 75.7 µM (inactive); in [12], > 100 µM (inactive). Further, the GI50 in experiment [14], in experiment [15], in experiment [16], in experiment [17], in experiment [18] and in experiment [19] was > 100 µM (inactive) in each case. Further, the GI50 in experiment [20] was > 100 µM (inactive).

For `CN1CC2=C(N=C(S)NC2c2ccccc2Cl)/C(=C/c2ccccc2Cl)C1` (stereo unspecified), the GI50 in experiment [1] was > 100 µM (inactive); in experiment [2], 30.5 µM (inactive); in experiment [3] it was > 100 µM (inactive); in experiment [4], 73.6 µM (inactive); in experiment [5] it was > 100 µM (inactive); in [6] it was 43.2 µM (inactive). For the same compound, the GI50 in [7] is 30.8 µM (inactive); in experiment [8] it was 29 µM (inactive); in experiment [9], 14.3 µM (inactive); in experiment [10] it was 46.2 µM (inactive); in experiment [11] it was 58.3 µM (inactive); in [12] it was > 100 µM (inactive). Moreover, the GI50 in experiment [13] was 21.8 µM (inactive); in experiment [14] it was 53.7 µM (inactive); in [15], 14.7 µM (inactive); in experiment [16], 3.33 µM (inactive); in experiment [17], 21.8 µM (inactive); in experiment [18] it was 38.9 µM (inactive). For the same compound, the GI50 in [19] is 23 µM (inactive); in experiment [20], 25.9 µM (inactive).

With `O=C(O)CN1CCN2CCOCCN(CC1)CCN(CC(=O)O)CC2`, the GI50 in experiment [1], in experiment [2], in experiment [3], in experiment [4], in [5] and in experiment [6] was > 100 µM (inactive) in each case. Also, the GI50 in [7], in experiment [8], in experiment [9], in [10], in experiment [11] and in experiment [12] was > 100 µM (inactive) each time. For the same compound, the GI50 was > 100 µM (inactive) in [13]; > 100 µM (inactive) in experiment [14]; > 100 µM (inactive) in experiment [15]; > 100 µM (inactive) in experiment [16]; > 53.3 µM (inactive) in experiment [17]; > 100 µM (inactive) in [18]. In addition, the GI50 in [19] and in [20] was > 100 µM (inactive) throughout.

`CCOC(=O)C1=C(C)OC2(O)C=CC(O)=C3C(=O)N(c4ccccc4)C(=O)C312` (stereo unspecified): the GI50 is 37.3 µM (inactive) in experiment [1]; > 100 µM (inactive) in experiment [2]; 58.5 µM (inactive) in experiment [3]; 29.1 µM (inactive) in experiment [4]; 22.8 µM (inactive) in experiment [5]; 54 µM (inactive) in experiment [6]. Further, the GI50 in experiment [7] is 29.3 µM (inactive); in experiment [8], 32.7 µM (inactive); in experiment [9] it was 31.5 µM (inactive); in experiment [10], 40.7 µM (inactive); in experiment [11] it was 45.1 µM (inactive); in experiment [12] it was 40.5 µM (inactive). Also, the GI50 in [13] was 43.1 µM (inactive); in experiment [14], 29 µM (inactive); in experiment [15], 29.9 µM (inactive); in experiment [16], 41.8 µM (inactive); in experiment [17], 29.4 µM (inactive); in [18], 50.5 µM (inactive). Also, the GI50 is 29.7 µM (inactive) in experiment [19] and 20 µM (inactive) in experiment [20].

As to `S=C(NN=C1NCCCN1)Nc1ccccc1`, the GI50 in experiment [1], in experiment [2], in experiment [3], in experiment [4], in experiment [5] and in [6] was > 100 µM (inactive) in each case. Besides, the GI50 is > 100 µM (inactive) in experiment [7]; 99.5 µM (inactive) in experiment [8]; > 100 µM (inactive) in experiment [9]; > 100 µM (inactive) in [11]; > 100 µM (inactive) in experiment [12]; > 100 µM (inactive) in experiment [13]. For the same compound, the GI50 in experiment [14] was > 100 µM (inactive); in experiment [15], > 100 µM (inactive); in experiment [16] it was > 100 µM (inactive); in [17], 52.8 µM (inactive); in experiment [19], 48.3 µM (inactive); in experiment [20] it was > 100 µM (inactive).

Consider `CC[C@@]1(O)C(=O)OCc2c1cc1n(c2=O)Cc2c-1nc1ccccc1c2/C=N\NC(=O)C(C)N` (stereo partly specified), for which the GI50 in [1] is 0.332 µM (active); in [2] it was 0.405 µM (active); in [3], 6.71 µM (inactive); in experiment [4], < 0.0116 µM (active); in experiment [5] it was 0.0233 µM (active); in experiment [6], 11.9 µM (inactive). Further, the GI50 in [7] is 1.63 µM (inactive); in experiment [9], 7.1 µM (inactive); in [10], < 0.01 µM (active); in experiment [11], < 0.0157 µM (active); in experiment [12], 0.069 µM (active); in [13] it was 7.11 µM (inactive). Further, the GI50 in experiment [14] is 1.13 µM (inactive); in experiment [15], < 0.01 µM (active); in experiment [16] it was < 0.0298 µM (active); in [17], < 0.028 µM (active); in experiment [18] it was 0.254 µM (active); in [19], < 0.0158 µM (active). The GI50 in [20] was 1.64 µM (inactive).

`CCOC(=O)C1=NOC2(C=C(Br)C(=O)C(Br)=C2)C1`: the GI50 in experiment [1] was 1.79 µM (inactive); in [2], 22 µM (inactive); in experiment [3], 5.47 µM (inactive); in experiment [4], 4.43 µM (inactive); in experiment [5], 19 µM (inactive); in experiment [6], 2.22 µM (inactive). Besides, the GI50 in experiment [7] was 1.97 µM (inactive); in experiment [8] it was 1.37 µM (inactive); in experiment [9] it was 1.8 µM (inactive); in experiment [10], 2.36 µM (inactive); in experiment [11], 1.21 µM (inactive); in experiment [12], 0.659 µM (active). The GI50 in experiment [13] is 0.991 µM (active); in experiment [14], 7.36 µM (inactive); in experiment [15] it was 3.7 µM (inactive); in [16], 16.9 µM (inactive); in experiment [17], 0.28 µM (active); in experiment [18], 1.67 µM (inactive). Further, the GI50 in [19] was < 0.0346 µM (active); in experiment [20], 0.625 µM (active).

Take `Oc1ccccc1C1=NOC(c2ccc(C(F)(F)F)cc2)C1` (stereo unspecified): the GI50 in experiment [1], in experiment [2], in experiment [3], in experiment [4], in experiment [5] and in experiment [6] was > 50 µM (inactive) in each case. In addition, the GI50 in experiment [7] is > 50 µM (inactive); in [8], > 50 µM (inactive); in [9], > 50 µM (inactive); in experiment [10] it was > 50 µM (inactive); in experiment [11], 0.92 µM (active); in [12], > 50 µM (inactive). Besides, the GI50 in experiment [13] was > 50 µM (inactive); in experiment [14], 0.527 µM (active); in experiment [15], > 50 µM (inactive); in [16], > 50 µM (inactive); in experiment [17], > 50 µM (inactive); in [18] it was > 50 µM (inactive). Besides, the GI50 in experiment [19] and in [20] was > 50 µM (inactive) each time.

With `CC(C)=NOC(=O)OC[C@H]1O[C@@H](n2cnc3c(N)ncnc32)C(O)C1O` (stereo partly specified), the GI50 in experiment [1], in experiment [2], in experiment [3], in [4], in experiment [5] and in [6] was > 100 µM (inactive) each time. Also, the GI50 is 85.3 µM (inactive) in experiment [7]; 30.1 µM (inactive) in [8]; > 100 µM (inactive) in experiment [9]; > 100 µM (inactive) in [10]; > 100 µM (inactive) in experiment [11]; 70 µM (inactive) in experiment [12]. Besides, the GI50 in [13] is > 100 µM (inactive); in [14], > 100 µM (inactive); in [15], > 10 µM (inactive); in experiment [16], > 100 µM (inactive); in [17], 45.7 µM (inactive); in experiment [18] it was 87.7 µM (inactive). Further, the GI50 in [19] and in experiment [20] was > 100 µM (inactive) in each case.

For the origin of these results see ChEMBL document CHEMBL1201862, “PubChem BioAssay data set” (2004).
